This experiment relates to choroidal neovascularization. In words: choroidal NV in a mouse model, topical administration. The experiment is classed as in vivo. The settings on record: applicant's previous findings.

`NC(=O)Cc1cccc(C(=O)c2ccccc2)c1N` [nepafenac]: the “choroidal NV” value is given as “inhibited”.

The values above are taken from US20050143468A1, “Method of treating vascular endothelial growth factor mediated vascular disorders” (priority 2002, published 2005).
